Data taken from US20250032623A1, “HETEROBIFUNCTIONAL COMPOUNDS AND THEIR USE IN TREATING DISEASE” (HALDA THERAPEUTICS OPCO, INC., priority 2021, published 2025).
Like-named read-outs stand apart in the source and are kept apart here.

Assays:
EGFR = biological target: T1, EGFR (Homo sapiens, UniProt P00533); assay: KdELECT binding assay, EGFR
T1 construct: purchased
Method: Exemplary compounds were tested for ability to bind to EGFR.
Compounds were tested using a KdELECT assay. Kinase-tagged T7 phage strains were prepared in an E. coli host derived from the BL21 strain. E. coli were grown to log-phase and infected with T7 phage and incubated with shaking at 32° C. until lysis. The lysates were centrifuged and filtered to remove cell debris. The remaining kinases were produced in HEK-293 cells and subsequently tagged with DNA for qPCR detection. Streptavidin-coated magnetic beads were treated with biotinylated small molecule ligands for 30 minutes at room temperature to generate affinity resins for kinase assays. The liganded beads were blocked with excess biotin and washed with blocking buffer (SeaBlock (Pierce), 1% BSA, 0.05% Tween 20, 1 mM DTT) to remove unbound ligand and to reduce non-specific binding. Binding reactions were assembled by combining kinases, liganded affinity beads, and test compounds in 1× binding buffer (20% SeaBlock, 0.17×PBS, 0.05% Tween 20, 6 mM DTT). Test compounds were prepared as 111× stocks in 100% DMSO. Kd values were determined using an 11-point 3-fold compound dilution series with three DMSO control points. All compounds for Kd measurements are distributed by acoustic transfer (non-contact dispensing) in 100% DMSO. The compounds were then diluted directly into the assays such that the final concentration of DMSO was 0.9%. All reactions performed in polypropylene 384-well plate. Each was a final volume of 0.02 mL. The assay plates were incubated at room temperature with shaking for 1 hour and the affinity beads were washed with wash buffer (1× PBS, 0.05% Tween 20). The beads were then re-suspended in elution buffer (1× PBS, 0.05% Tween 20, 0.5 μM nonbiotinylated affinity ligand) and incubated at room temperature with shaking for 30 minutes. The kinase concentration in the eluates was measured by qPCR.

HEK293 cells = assay: Cellular growth inhibition assay (CellTiter-Glo), HEK293 cells; assay type: cell-based; conditions: three days compound treatment, CellTiter-Glo 2.0, read-out: CTG HEK293 GI50
Method: (§1) Exemplary compounds were tested for ability to inhibit the proliferation of HEK293 cells or HeLa cells.
(§2) HEK293 and HeLa cells were cultured in DMEM medium supplemented with 10% fetal bovine serum and 1% Penn/Strep. Cells were seeded in white 384-well plates at 500 cells/well in […] complete medium. Following seeding, plates were spun at 300×g for three minutes and cultured at 37° C. with 5% CO2 in a humidified tissue culture incubator.
(§3) After 24 hours, compounds were titrated in 100% DMSO and diluted in complete cell culture medium. […] of compound/media mixture was added to cells to bring total volume in well to […]. DMSO alone was used as a negative control. P lates were then spun at 300×g for three minutes and stored at 37° C. with 5% CO2 for three days.
(§4) On Day 0 and Day 3 of compound treatment, cell viability was quantified with CellTiter-Glo 2.0 reagent (Promega). After equilibrating microplates at room temperature for 30 minutes, 25 μL CellTiter-Glo 2.0 reagent was dispensed into each well to bring total volume to […]. Plates were mixed on shaker for 2 minutes at 500 rpm, followed by a 10-minute incubation at room temperature. Following a quick spin, luminescence readings were measured with an EnVision Plate Reader. Data was normalized to DMSO treated Day 0 and Day 3 readings. A four-parameter non-linear regression curve fit was applied to dose-response data in GraphPad Prism data analysis software to determine the half maximal growth inhibitory concentration (GI50) for each compound.

HeLa cells = assay: Cellular growth inhibition assay (CellTiter-Glo), HeLa cells; assay type: cell-based; conditions: three days compound treatment, CellTiter-Glo 2.0, read-out: CTG HELA GI50
Method: as §1, §2, §3, §4

T1 sequence (P00533 25-1210): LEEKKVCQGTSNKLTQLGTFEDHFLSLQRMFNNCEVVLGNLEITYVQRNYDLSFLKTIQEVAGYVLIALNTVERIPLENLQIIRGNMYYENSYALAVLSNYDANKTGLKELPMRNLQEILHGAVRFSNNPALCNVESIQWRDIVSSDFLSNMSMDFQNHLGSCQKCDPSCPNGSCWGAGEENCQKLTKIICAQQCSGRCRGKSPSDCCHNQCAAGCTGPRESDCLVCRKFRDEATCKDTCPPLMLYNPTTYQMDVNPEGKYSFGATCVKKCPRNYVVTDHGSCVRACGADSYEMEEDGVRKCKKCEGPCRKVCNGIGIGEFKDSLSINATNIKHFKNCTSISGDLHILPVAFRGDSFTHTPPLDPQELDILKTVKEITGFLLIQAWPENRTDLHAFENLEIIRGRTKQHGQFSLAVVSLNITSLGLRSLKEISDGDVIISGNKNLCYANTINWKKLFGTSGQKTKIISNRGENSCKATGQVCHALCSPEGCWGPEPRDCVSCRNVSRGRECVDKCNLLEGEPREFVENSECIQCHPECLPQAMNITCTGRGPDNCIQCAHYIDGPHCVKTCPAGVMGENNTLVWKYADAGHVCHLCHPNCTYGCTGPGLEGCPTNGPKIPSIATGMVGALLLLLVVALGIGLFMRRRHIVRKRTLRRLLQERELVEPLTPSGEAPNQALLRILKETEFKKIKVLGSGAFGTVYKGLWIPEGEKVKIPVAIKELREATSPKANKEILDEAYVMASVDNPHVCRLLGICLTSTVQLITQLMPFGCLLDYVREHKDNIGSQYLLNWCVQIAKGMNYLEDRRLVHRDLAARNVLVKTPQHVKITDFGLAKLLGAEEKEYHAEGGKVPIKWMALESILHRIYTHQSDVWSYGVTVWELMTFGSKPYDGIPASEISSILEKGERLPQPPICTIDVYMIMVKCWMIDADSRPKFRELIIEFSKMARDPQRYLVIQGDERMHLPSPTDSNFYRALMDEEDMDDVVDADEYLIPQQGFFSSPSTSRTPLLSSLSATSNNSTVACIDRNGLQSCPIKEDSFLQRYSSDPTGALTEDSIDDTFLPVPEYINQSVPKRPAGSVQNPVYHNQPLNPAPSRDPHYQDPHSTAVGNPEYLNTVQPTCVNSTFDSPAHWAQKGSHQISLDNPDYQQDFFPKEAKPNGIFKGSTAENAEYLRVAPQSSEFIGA

| GI50 (HeLa cells; Homo sapiens, 72 h) | Structure (SMILES) | GI50 (HEK293 cells; Homo sapiens, 72 h) | further results |
| --- | --- | --- | --- |
| < 0.5 µM | C=CC(=O)N[C@@H]1CN(c2nc(Nc3cn(CCOCCOCCOCCOCCOc4ccc(CNc5cc(N6CCCC[C@H]6CCO)nc6c(CC)cnn56)cn4)nc3OC)c3ncn(C)c3n2)C[C@H]1F [Compound I-145, N-[(3R,4R)-1-[6-[[1-[2-[2-[2-[2-[2-[[5-[[[3-ethyl-5-[(2S)-2-(2-hydroxyethyl)-1-piperidyl]pyrazolo[1,5-a]pyrimidin-7-yl]amino]methyl]-2-pyridyl]oxy]ethoxy]ethoxy]ethoxy]ethoxy]ethyl]-3-methoxy-pyrazol-4-yl]amino]-9-methyl-purin-2-yl]-4-fluoro-pyrrolidin-3-yl]prop-2-enamide] | < 0.5 µM |  |
| 0.5 to 1.5 µM | C=CC(=O)N[C@@H]1CN(c2nc(Nc3cn(CCCN4CCN(CCCOc5ccc(CNc6cc(N7CCCC[C@H]7CCO)nc7c(CC)cnn67)cn5)CC4)nc3OC)c3ncn(C)c3n2)C[C@H]1F [Compound I-147, N-[(3R,4R)-1-[6-[[1-[3-[4-[3-[[5-[[[3-ethyl-5-[(2S)-2-(2-hydroxyethyl)-1-piperidyl]pyrazolo[1,5-a]pyrimidin-7-yl]amino]methyl]-2-pyridyl]oxy]propyl]piperazin-1-yl]propyl]-3-methoxy-pyrazol-4-yl]amino]-9-methyl-purin-2-yl]-4-fluoro-pyrrolidin-3-yl]prop-2-enamide] | < 0.5 µM |  |
| < 0.5 µM | C=CC(=O)N[C@@H]1CN(c2nc(Nc3cn(CCCCCCCCNS(=O)(=O)c4ccc(Nc5ncc(Br)c(Nc6cccc(F)c6C(N)=O)n5)cc4)nc3OC)c3ncn(C)c3n2)C[C@H]1F [Compound I-148, 2-[[5-bromo-2-[4-[8-[4-[[2-[(3R,4R)-3-fluoro-4-(prop-2-enoylamino)pyrrolidin-1-yl]-9-methyl-purin-6-yl]amino]-3-methoxy-pyrazol-1-yl]octylsulfamoyl]anilino]pyrimidin-4-yl]amino]-6-fluoro-benzamide] | < 0.5 µM |  |
| < 0.5 µM | CC[C@@H]1C(=O)N(C)c2cnc(Nc3ccc(C(=O)NCCCN4CCN(CCCN(C)C/C=C/C(=O)Nc5cc(Nc6nccc(-c7cn(C)c8ccccc78)n6)c(OC)cc5N(C)CCN(C)C)CC4)cc3OC)nc2N1C1CCCC1 [Compound I-151, 4-[[(7R)-8-cyclopentyl-7-ethyl-5-methyl-6-oxo-7H-pteridin-2-yl]amino]-N-[3-[4-[3-[[(E)-4-[2-[2-(dimethylamino)ethyl-methyl-amino]-4-methoxy-5-[[4-(1-methylindol-3-yl)pyrimidin-2-yl]amino]anilino]-4-oxo-but-2-enyl]-methyl-amino]propyl]piperazin-1-yl]propyl]-3-methoxy-benzamide] | 0.5 to 1.5 µM |  |

The remaining lines, values behind:

| Structure (SMILES) | GI50 (HeLa cells; Homo sapiens, 72 h) | GI50 (HEK293 cells; Homo sapiens, 72 h) | further results |
| --- | --- | --- | --- |
| C=CC(=O)N[C@@H]1CN(c2nc(Nc3cn(CCOCCOCCOCCOCCON(C)C(=O)N4N=C(c5cc(F)ccc5F)SC4(CCCN)c4ccccc4)nc3OC)c3ncn(C)c3n2)C[C@H]1F (some centres unmarked) [Compound I-66] |  |  | Kd (EGFR): < 0.05 µM |
| CCc1cnn2c(NCc3ccc(OCCOCCOCCOCCOCCN(C)C/C=C/C(=O)N4CCN(c5nc(=O)n(-c6c(C)ccnc6C(C)C)c6nc(-c7c(O)cccc7F)c(F)cc56)[C@@H](C)C4)nc3)cc(N3CCCC[C@H]3CCO)nc12 [Compound I-76] | > 5 µM | > 5 µM |  |
| Cc1c(CC(=O)N(C)C)ccc(NC(=O)c2nn([C@@H]3CCCN(C(=O)/C=C/CN(C)CCOCCOCC(=O)NCCCCn4nc(-c5ccc6oc(N)nc6c5)c5c(N)ncnc54)C3)c3ncnc(N)c23)c1C [Compound I-83, 4-amino-1-[(3R)-1-[(E)-4-[2-1[2-[2-[4-[4-amino-3-(2-amino-1,3-benzoxazol-5-yl)pyrazolo[3,4-d]pyrimidin-1-yl]butylamino]-2-oxo-ethoxy]ethoxy]ethyl-methyl-amino]but-2-enoyl]-3-piperidyl]-N-[4-[2-(dimethylamino)-2-oxo-ethyl]-2,3-dimethyl-phenyl]pyrazolo[3,4-d]pyrimidine-3-carboxamide] |  |  | GI50 (HEK293 cells): 1.5 to 5 µM; GI50 (HeLa cells): > 5 µM |
| C=CC(=O)NC1CN(c2nc(Nc3cn(CCOCCOCCOCCOCCOCCOCCNC(=O)c4ccc(Nc5ncc6c(n5)N(C5CCCC5)[C@H](CC)C(=O)N6C)c(OC)c4)nc3OC)c3ncn(C)c3n2)C[C@H]1F (stereo partly drawn) [Compound I-114, 4-[[(7R)-8-cyclopentyl-7-ethyl-5-methyl-6-oxo-7H-pteridin-2-yl]amino]-N-[2-[2-[2-[2-[2-[2-[2-[4-[[2-[(3R)-3-fluoro-4-(prop-2-enoylamino)pyrrolidin-1-yl]-9-methyl-purin-6-yl]amino]-3-methoxy-pyrazol-1-yl]ethoxy]ethoxy]ethoxy]ethoxy]ethoxy]ethoxy]ethyl]-3-methoxy-benzamide] |  | 1.5 to 5 µM |  |
| CC[C@@H]1C(=O)N(C)c2cnc(Nc3ccc(C(=O)NCCN(C)C/C=C/C(=O)Nc4cc(Nc5nccc(-c6cn(C)c7ccccc67)n5)c(OC)cc4N(C)CCN(C)C)cc3OC)nc2N1C1CCCC1 [Compound I-116, 4-[[(7R)-8-cyclopentyl-7-ethyl-5-methyl-6-oxo-7H-pteridin-2-yl]amino]-N-[2-[[(E)-4-1[2-[2-(dimethylamino)ethyl-methyl-amino]-4-methoxy-5-[[4-(1-methylindol-3-yl)pyrimidin-2-yl]amino]anilino]-4-oxo-but-2-enyl]-methyl-amino]ethyl]-3-methoxy-benzamide] |  | 1.5 to 5 µM |  |
| CC[C@@H]1C(=O)N(C)c2cnc(Nc3ccc(C(=O)NCCN(C)C/C=C/C(=O)NC4CN(c5nc(Nc6cn(C)nc6OC)c6ncn(C)c6n5)C[C@H]4F)cc3OC)nc2N1C1CCCC1 (stereo partly drawn) [Compound I-119, 4-[l[(7R)-8-cyclopentyl-7-ethyl-5-methyl-6-oxo-7H-pteridin-2-yl]amino]-N—[2-[ [(E)-4-[ [(3R,4R)-4-fluoro-1-[6-[(3-methoxy-1-methyl-pyrazol-4-yl)amino]-9-methyl-purin-2-yl]pyrrolidin-3-yl]amino]-4-oxo-but-2-enyl]-methyl-amino]ethyl]-3-methoxy-benzamide] |  | 1.5 to 5 µM |  |
| C=CC(=O)N[C@@H]1CN(c2nc(Nc3cn(CCOCCOCCNS(=O)(=O)c4ccc(Nc5ncc(Br)c(Nc6cccc(F)c6C(N)=O)n5)cc4)nc3OC)c3ncn(C)c3n2)C[C@H]1F [Compound I-142, 2-[[5-bromo-2-[4-[2-[2-[2-[4-[[2-1[(3R,4R)-3-fluoro-4-(prop-2-enoylamino)pyrrolidin-1-yl]-9-methyl-purin-6-yl]amino]-3-methoxy-pyrazol-1-yl]ethoxy]ethoxy]ethylsulfamoyl]anilino]pyrimidin-4-yl]amino]-6-fluoro-benzamide] |  |  | GI50 (HEK293 cells): > 5 µM; GI50 (HeLa cells): 1.5 to 5 µM |
| C=CC(=O)N[C@@H]1CN(c2nc(Nc3cn(CCOCCOCCOc4ccc(CNc5cc(N6CCCC[C@H]6CCO)nc6c(CC)cnn56)cn4)nc3OC)c3ncn(C)c3n2)C[C@H]1F [Compound I-144, N-[(3R,4R)-1-[6-[[1-[2-[2-[2-[[5-1[[[3-ethyl-5-[(2S)-2-(2-hydroxyethyl)-1-piperidyl]pyrazolo[1,5-a]pyrimidin-7-yl]amino]methyl]-2-pyridyl]oxy]ethoxy]ethoxy]ethyl]-3-methoxy-pyrazol-4-yl]amino]-9-methyl-purin-2-yl]-4-fluoro-pyrrolidin-3-yl]prop-2-enamide] |  |  | GI50 (HEK293 cells): < 0.5 µM; GI50 (HeLa cells): < 0.5 µM |
